# According to the supplement of paper PMC10307832:
# Assays:
# Experiment in all cases: relative viability (nuclei count vs DMSO), 5 days (fraction); higher = more cells survive
# [1] = compound: COc1cc2nc(N3CCCN(C)CC3)nc(NC3CCN(Cc4ccccc4)CC3)c2cc1OC + CS(=O)(=O)CCNCc1ccc(-c2ccc3ncnc(Nc4ccc(OCc5cccc(F)c5)c(Cl)c4)c3c2)o1 [Lapatinib] (partner 2 µM)
# Outline: (§1)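 Values are medians from duplicate plates. Each reflects relative viability, defined as the nuclei count of treated wells over that of vehicle wells. Lung cancer cell lines in 1536-well plates were pin-tool dosed one day after seeding with one drug alone or with a fixed anchor-drug dose plus five library-drug doses (not always all listed) in √10 steps, then fixed, stained and imaged at 4× after 5 days.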
# AZD6482 + Tozasertib = compound: Cc1cc([C@@H](C)Nc2ccccc2C(=O)O)c2nc(N3CCOCC3)cc(=O)n2c1 [AZD6482] + Cc1cc(Nc2cc(N3CCN(C)CC3)nc(Sc3ccc(NC(=O)C4CC4)cc3)n2)n[nH]1 [Tozasertib] (partner 0.1 µM)
# Outline: as §1
# AZD6482 + Alpelisib = compound: Cc1cc([C@@H](C)Nc2ccccc2C(=O)O)c2nc(N3CCOCC3)cc(=O)n2c1 [AZD6482] + Cc1nc(NC(=O)N2CCC[C@H]2C(N)=O)sc1-c1ccnc(C(C)(C)C(F)(F)F)c1 [Alpelisib] (partner 2 µM)
# Outline: as §1
# AZD6482 + Olaparib = compound: Cc1cc([C@@H](C)Nc2ccccc2C(=O)O)c2nc(N3CCOCC3)cc(=O)n2c1 [AZD6482] + O=C(c1cc(Cc2n[nH]c(=O)c3ccccc23)ccc1F)N1CCN(C(=O)C2CC2)CC1 [Olaparib] (partner 8 µM)
# Outline: as §1
Cell Line,relative viability ([1]; first compound 0.2 µM),relative viability ([1]; first compound 0.6325 µM),relative viability ([1]; first compound 2 µM),relative viability ([1]; first compound 6.325 µM),relative viability (AZD6482 + Tozasertib; first compound 0.08 µM),relative viability (AZD6482 + Tozasertib; first compound 0.253 µM),relative viability (AZD6482 + Tozasertib; first compound 0.8 µM),relative viability (AZD6482 + Tozasertib; first compound 2.53 µM),relative viability (AZD6482 + Tozasertib; first compound 8 µM),relative viability (AZD6482 + Alpelisib; first compound 0.08 µM),relative viability (AZD6482 + Alpelisib; first compound 0.253 µM),relative viability (AZD6482 + Alpelisib; first compound 0.8 µM),relative viability (AZD6482 + Alpelisib; first compound 2.53 µM),relative viability (AZD6482 + Alpelisib; first compound 8 µM),relative viability (AZD6482 + Olaparib; first compound 0.08 µM),relative viability (AZD6482 + Olaparib; first compound 0.253 µM),relative viability (AZD6482 + Olaparib; first compound 0.8 µM),relative viability (AZD6482 + Olaparib; first compound 2.53 µM),relative viability (AZD6482 + Olaparib; first compound 8 µM)
LXF-289,0.854,0.878,0.886,0.907,0.178,0.135,0.171,0.207,0.122,0.946,1.01,0.966,0.798,0.706,1.02,1.05,1.11,0.986,0.918
NCI-H23,1.02,1.03,1.37,1.02,0.489,0.302,0.398,0.358,0.228,0.642,0.534,0.713,0.374,0.597,0.26,0.371,0.411,0.266,0.247
NCI-H322M,0.573,0.642,0.621,0.605,0.442,0.461,0.453,0.319,0.384,0.574,0.553,0.573,0.474,0.48,0.671,0.761,0.749,0.494,0.701
NCI-H358,0.449,0.554,0.49,0.347,0.0814,0.107,0.104,0.0733,0.0946,0.657,0.978,0.705,0.39,0.833,0.535,0.554,0.624,0.282,0.52
NCI-H460,0.9,0.979,0.902,0.487,0.468,0.288,0.135,0.537,0.389,0.206,0.352,0.263,0.13,0.18,0.335,0.394,0.435,0.216,0.327
NCI-H520,0.892,0.894,0.92,0.3,0.39,0.344,0.344,0.221,0.221,0.381,0.287,0.263,,0.353,0.295,0.266,0.262,0.162,0.185
NCI-H596,1.1,0.563,1.24,0.837,0.854,1.16,0.725,0.772,0.666,0.449,0.437,0.445,0.44,0.388,0.596,0.68,1.01,0.737,0.598
NCI-H647,1.16,0.967,1.11,0.417,0.23,0.26,0.192,0.145,0.23,0.622,,0.778,0.459,0.526,0.544,0.482,0.554,0.373,0.419
NCI-H650,0.731,0.839,1.3,0.692,0.722,,0.751,0.588,0.443,1.11,,0.997,0.656,0.778,0.315,0.364,0.337,0.31,0.268
NCI-H661,0.568,0.503,0.68,0.563,0.365,0.362,0.407,0.372,0.383,0.656,0.454,0.486,,0.419,0.733,0.857,0.83,0.719,0.729
NCI-H727,0.769,0.901,0.838,0.543,0.587,0.645,0.571,0.457,0.449,0.398,0.535,0.46,,0.493,0.681,0.666,0.66,,0.669
NCI-H838,0.948,1.11,1.13,0.918,0.264,0.266,0.243,0.192,0.222,0.8,0.98,0.881,0.679,0.771,0.631,0.712,0.651,0.433,0.395
NCI-H1355,1.01,0.992,1.05,0.951,0.462,0.419,0.43,0.435,0.441,0.523,0.621,0.6,0.452,0.592,0.597,0.63,0.708,0.522,0.564
NCI-H1395,0.987,1.08,1.29,0.831,0.625,0.646,0.584,0.54,0.44,0.696,0.573,0.732,0.5,0.587,0.406,0.429,0.501,0.388,0.32
NCI-H1437,0.754,0.888,0.966,0.698,0.393,0.408,0.301,0.325,0.254,0.819,0.842,0.809,0.641,0.741,0.644,0.672,0.651,0.599,0.557
NCI-H1651,0.785,0.807,0.834,0.855,0.68,0.647,0.598,0.565,0.592,0.791,0.778,0.712,0.42,0.777,0.174,0.198,0.197,0.201,0.187
NCI-H1666,0.508,0.746,0.475,0.332,0.544,0.701,0.592,0.554,0.648,0.609,0.748,0.751,0.64,0.738,0.731,0.722,0.777,0.712,0.773
